From patent US11180484B2, “Pyrazole derivatives as plasma kallikrein inhibitors” (KALVISTA PHARMACEUTICALS LIMITED, priority 2016, dated 2021)
In brackets after ≈: the same amount, converted by molar mass. Read-outs that look alike come from different tables or passages of the source.

Columns and labels:
[1] = Intrinsic clearance in rat liver microsomes; assay type: in vitro ADME; conditions: rat liver microsomes 0.5 mg/mL, 5 μM test compound, 37° C.; read-out: rat liver microsome (Clint μL/min/mg protein)
Procedure: (§1) Rat or human liver microsomes (0.5 mg/mL; Corning) were incubated with 5 μM test compound at 37° C. on a shaking platform (150 rpm). Samples were taken at 0, 6, 12, 18, 24 and 60 min and test compound concentrations were determined by LCMS against a calibration curve.

[2] = Predicted plasma clearance (Clp), well-stirred model, rat; assay type: in vitro ADME; conditions: percentage of hepatic blood flow
Procedure: (§2) The predicted plasma clearance (Clp) is calculated using the well-stirred model (Rowland M, Benet L Z, and Graham G G. Clearance concepts in pharmacokinetics. J Pharmacokinet Biopharm. (1973) 1:123-136.), one of several models that can be used to extrapolate the in vitro data. The model assumes instantaneous and complete mixing of drug within the liver and is a function of intrinsic clearance, hepatic blood flow and free fraction of drug in the blood. The predicted plasma clearance in mL/min/kg is presented as a percentage of hepatic blood flow (LBF).

[3] = molecular target: T1, Human plasma kallikrein (Homo sapiens (Human), UniProt P03952); assay: Determination of the IC50 for plasma kallikrein; assay type: biochemical; conditions: 25° C., substrate H-DPro-Phe-Arg-AFC; read-out: IC50 (human PKal)
T1 sequence (P03952 391-638): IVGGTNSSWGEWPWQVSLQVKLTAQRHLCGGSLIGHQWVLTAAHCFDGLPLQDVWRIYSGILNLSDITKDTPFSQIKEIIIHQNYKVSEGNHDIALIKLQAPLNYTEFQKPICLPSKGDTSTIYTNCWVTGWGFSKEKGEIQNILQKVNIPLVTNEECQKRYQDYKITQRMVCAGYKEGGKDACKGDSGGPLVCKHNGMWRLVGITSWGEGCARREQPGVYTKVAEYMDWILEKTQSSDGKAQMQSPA
T1 sequence (P03952 20-390): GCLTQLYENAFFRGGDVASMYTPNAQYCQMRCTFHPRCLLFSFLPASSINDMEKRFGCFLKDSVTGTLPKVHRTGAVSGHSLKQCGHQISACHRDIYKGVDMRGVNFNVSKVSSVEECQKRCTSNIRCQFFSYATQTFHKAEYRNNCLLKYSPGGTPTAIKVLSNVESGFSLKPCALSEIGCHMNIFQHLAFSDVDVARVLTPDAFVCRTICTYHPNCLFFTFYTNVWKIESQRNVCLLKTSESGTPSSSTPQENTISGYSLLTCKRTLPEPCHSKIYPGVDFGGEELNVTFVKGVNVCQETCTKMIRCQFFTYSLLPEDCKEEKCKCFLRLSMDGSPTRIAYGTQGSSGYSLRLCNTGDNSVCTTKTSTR
Procedure: (§3) Human plasma kallikrein (Protogen) was incubated at 25° C. with the fluorogenic substrate H-DPro-Phe-Arg-AFC and various concentrations of the test compound. Residual enzyme activity (initial rate of reaction) was determined by measuring the change in […] at 410 nm and the IC50 value for the test compound was determined.

[4] = Predicted plasma clearance (Clp), well-stirred model, human; assay type: in vitro ADME; conditions: percentage of hepatic blood flow
Procedure: as §2

[5] = molecular target: T1, Human plasma kallikrein; assay: Determination of the Ki for plasma kallikrein (mixed-model inhibition); assay type: biochemical; conditions: for Ki: human plasma kallikrein, mixed-model inhibition equation; for Alpha: parameter of the mixed-model equation indicating mechanism of inhibition
Procedure: Plasma kallikrein inhibitory activity in vitro was determined using standard published methods (e.g. Johansen et al., Int. J. Tiss. Reac. 1986, 8, 185; Shori et al., Biochem. Pharmacol., 1992, 43, 1209; Sturzebecher et al., Biol. Chem. Hoppe-Seyler, 1992, 373, 1025). […]. Residual enzyme activity (initial rate of reaction) was determined by measuring the change in fluorescence at 410 nm. The Ki value for the test compound was determined using the mixed-model inhibition equation (based on Equation 3.2 in: RA Copeland, Evaluation of Enzyme Inhibitors in Drug Discovery, Wiley 2005) in GraphPad Prism. The mixed model equation includes competitive, uncompetitive and noncompetitive inhibition as special cases and the parameter of Alpha to indicate mechanism of inhibition.

[6] = Plasma protein binding (PPB), rapid equilibrium dialysis, human plasma; assay type: in vitro ADME; conditions: 5 μM test compound, dialysis 5 hrs at 37° C.
Procedure: The fraction unbound in plasma was determined using ThermoScientific™ Pierce™ Rapid Equilibrium Dialysis Technology (Single-Use plate with inserts, 8K MWCO). […] Reference samples from the non-dialysed plasma were taken before the incubation to enable an assessment of recovery. Test compound concentrations were determined in plasma and buffer compartments by LCMS against a calibration curve. […] Results are presented as percent plasma protein bound (% PPB).

[7] = In vitro permeability, Caco-2 model for oral absorption; assay type: in vitro ADME; conditions: human, apical to basolateral, 50 μM test compound, 37° C.
Procedure: In vitro permeability was determined using the Caco-2 model for oral absorption. The methodology was adapted from standard published methods (Wang Z, Hop C. E., Leung K. H. and Pang J. (2000) J Mass Spectrom 35(1); 71-76). The Caco-2 monolayers were established in a Biocoat™ HTS fibrillar collagen 24 well multiwell insert system (1.0 μm, PET membrane, Corning 354803) in which 200,000 cells were seeded into each insert and maintained over 3 days before being utilised in the permeability assay. For the assay, 50 μM test compound is added to the apical side of the inserts and incubated for 1 hour at 37° C. on a shaking platform (120 rpm). Apical to basolateral transport was determined by measuring the test article in both compartments by LCMS following the 1 hour incubation. The integrity of the Caco-2 monolayers was confirmed by two methods, (i) comparison of pre- and post-experiment transepithelial electrical resistance (TEER) and, (ii) assessment of Lucifer Yellow flux.

[8] = Plasma protein binding (PPB), rapid equilibrium dialysis, rat plasma; assay type: in vitro ADME; conditions: 5 μM test compound, dialysis 5 hrs at 37° C.
Procedure: The fraction unbound in plasma was determined using ThermoScientific™ Pierce™ Rapid Equilibrium Dialysis Technology (Single-Use plate with inserts, 8K MWCO). 5 μM test compound was spiked into human or rat plasma (300 μL) and dialysed against 146.5 mM phosphate buffer (500 μL) for 5 hrs at 37° C., shaking at 1200 rpm. Reference samples from the non-dialysed plasma were taken before the incubation to enable an assessment of recovery. Test compound concentrations were determined in plasma and buffer compartments by LCMS against a calibration curve. The fraction unbound in plasma was determined using standard methodology (Waters N J et al (2008) J Pharm Sci 97(10); 4586-95). Results are presented as percent plasma protein bound (% PPB).

[9] = molecular target: Human Factor XIIa (Homo sapiens (Human), UniProt P00748); assay: Factor XIIa inhibitory activity in vitro; assay type: biochemical; conditions: 25° C., substrate H-DPro-Phe-Arg-AFC; read-out: IC50 (human FXIIa)
Human Factor XIIa, sequence (P00748 373-615): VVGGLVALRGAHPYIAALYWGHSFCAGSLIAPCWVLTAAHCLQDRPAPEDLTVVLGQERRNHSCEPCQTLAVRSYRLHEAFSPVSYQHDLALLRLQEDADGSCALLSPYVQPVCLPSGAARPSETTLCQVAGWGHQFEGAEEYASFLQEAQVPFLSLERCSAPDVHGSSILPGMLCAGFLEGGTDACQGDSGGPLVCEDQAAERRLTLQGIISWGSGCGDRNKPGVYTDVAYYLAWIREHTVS
Procedure: as §3, with “Factor XIIa (Enzyme Research Laboratories)” for “plasma kallikrein (Protogen)”

[10] = molecular target: Human FXIa (Homo sapiens (Human), UniProt P03951); assay: Determination of the % inhibition / IC50 for FXIa; assay type: biochemical; conditions: for IC50: 25° C., substrate Z-Gly-Pro-Arg-AFC; for inhibition at 40 µM: read-out: % Inhibition @ 40 μM (human FXIa)
Human FXIa, sequence (P03951 388-625): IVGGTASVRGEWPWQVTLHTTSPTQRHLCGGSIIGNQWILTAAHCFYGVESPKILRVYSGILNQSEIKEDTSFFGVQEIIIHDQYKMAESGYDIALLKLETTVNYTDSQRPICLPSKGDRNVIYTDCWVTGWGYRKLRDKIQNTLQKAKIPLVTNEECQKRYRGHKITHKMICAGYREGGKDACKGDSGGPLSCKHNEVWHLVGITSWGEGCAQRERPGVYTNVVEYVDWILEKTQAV
Human FXIa, sequence (P03951 19-387): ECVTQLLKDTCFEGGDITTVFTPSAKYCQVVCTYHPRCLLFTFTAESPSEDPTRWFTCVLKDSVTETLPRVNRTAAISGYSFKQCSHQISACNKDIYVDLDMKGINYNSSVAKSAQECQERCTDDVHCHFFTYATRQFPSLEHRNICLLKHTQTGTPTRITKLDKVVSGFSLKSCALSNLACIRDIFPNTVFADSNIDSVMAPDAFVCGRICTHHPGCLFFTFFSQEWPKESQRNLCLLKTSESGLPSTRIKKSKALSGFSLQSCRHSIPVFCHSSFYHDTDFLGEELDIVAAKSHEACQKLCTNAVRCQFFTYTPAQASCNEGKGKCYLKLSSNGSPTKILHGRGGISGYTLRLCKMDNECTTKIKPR
Procedure: FXIa inhibitory activity in vitro was determined using standard published methods (see e.g. Johansen et al., Int. J. Tiss. Reac. 1986, 8, 185; Shori et al., Biochem. Pharmacol., 1992, 43, 1209; Sturzebecher et al., Biol. Chem. Hoppe-Seyler, 1992, 373, 1025). […]

[11] = molecular target: Human KLK1 (Homo sapiens (Human), UniProt P06870); assay: Determination of the IC50 for KLK1; assay type: biochemical; conditions: 25° C., substrate H-DVal-Leu-Arg-AFC
Human KLK1, sequence (P06870 25-262): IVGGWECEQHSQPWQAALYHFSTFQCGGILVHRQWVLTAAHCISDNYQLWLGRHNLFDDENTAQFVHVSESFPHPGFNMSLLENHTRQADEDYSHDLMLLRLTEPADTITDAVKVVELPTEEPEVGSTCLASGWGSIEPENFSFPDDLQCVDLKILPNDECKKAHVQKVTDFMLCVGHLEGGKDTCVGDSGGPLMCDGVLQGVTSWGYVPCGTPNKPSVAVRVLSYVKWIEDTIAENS
Procedure: as §3, with “KLK1 (Callbiochem)” for “plasma kallikrein (Protogen)”, “H-DVal-Leu-Arg-AFC” for “H-DPro-Phe-Arg-AFC”

[12] = Intrinsic clearance in human liver microsomes; assay type: in vitro ADME; conditions: human liver microsomes 0.5 mg/mL, 5 μM test compound, 37° C.; read-out: Human liver microsome (Clint μL/min/mg protein)
Procedure: as §1

[13] = Solubility in water and 0.1N HCl (aq); assay type: physicochemical; conditions: thermodynamic from solid, incubated at 1 mg/mL, 37° C.
Procedure: Solubility was determined in water and 0.1N HCl (aq). Test compounds were incubated at 1 mg/mL for 24 hrs at 37° C. on a shaking platform (500 rpm). Samples were taken at 1, 4 and 24 hrs and centrifuged at 15,000 g for 10 min. Test compound concentration in the supernatant was determined by LCMS against a standard curve.

[14] = Pharmacokinetics following a single oral dose in male Sprague-Dawley rats; assay type: in vivo; conditions: rat, single po dose (nominal 10 mg/kg; actual dose per row in column Dose po), 10% DMSO/10% cremophor/80% SWFI, plasma
Procedure: Pharmacokinetic studies of the compounds in Table 13 were performed to assess the pharmacokinetics following a single oral dose in male Sprague-Dawley rats. Two rats were given a single po dose of 5 mL/kg of a nominal 2 mg/mL (10 mg/kg) composition of test compound in vehicle. Following dosing, blood samples were collected over a period of 24 hours. Sample times were 5, 15 and 30 minutes then 1, 2, 4, 6, 8 and 12 hours. Following collection, blood samples were centrifuged and the plasma fraction analysed for concentration of test compound by LCMS.

[15] = molecular target: plasmin (Homo sapiens (Human), UniProt P00747); assay: Determination of enzyme selectivity: plasmin; assay type: biochemical; conditions: substrate at Km concentration
plasmin, sequence (P00747 581-810): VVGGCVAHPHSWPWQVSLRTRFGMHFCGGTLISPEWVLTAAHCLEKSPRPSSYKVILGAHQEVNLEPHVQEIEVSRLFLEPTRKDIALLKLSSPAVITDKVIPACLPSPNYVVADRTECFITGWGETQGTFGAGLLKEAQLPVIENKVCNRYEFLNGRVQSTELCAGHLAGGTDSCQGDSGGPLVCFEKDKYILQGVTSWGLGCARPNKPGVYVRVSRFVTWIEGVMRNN
plasmin, sequence (P00747 97-580): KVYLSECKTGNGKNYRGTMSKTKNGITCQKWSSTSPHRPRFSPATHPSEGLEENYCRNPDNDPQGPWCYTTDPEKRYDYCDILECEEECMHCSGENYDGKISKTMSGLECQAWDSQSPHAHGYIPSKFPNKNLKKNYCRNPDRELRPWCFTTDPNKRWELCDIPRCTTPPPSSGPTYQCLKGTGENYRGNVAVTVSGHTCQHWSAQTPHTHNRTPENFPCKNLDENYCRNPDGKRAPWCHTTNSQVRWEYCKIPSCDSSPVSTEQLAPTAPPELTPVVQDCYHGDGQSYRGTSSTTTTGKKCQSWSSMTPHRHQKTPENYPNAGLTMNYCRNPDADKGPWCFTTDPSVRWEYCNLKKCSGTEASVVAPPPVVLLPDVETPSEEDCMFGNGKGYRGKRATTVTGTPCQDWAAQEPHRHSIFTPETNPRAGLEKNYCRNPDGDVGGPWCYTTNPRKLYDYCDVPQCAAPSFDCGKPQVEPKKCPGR
Procedure: (§4) Human serine protease enzymes plasmin, thrombin and trypsin were assayed for enzymatic activity using an appropriate fluorogenic substrate. Protease activity was measured by monitoring the accumulation of liberated fluorescence from the substrate over 5 minutes. The linear rate of fluorescence increase per minute was expressed as percentage (%) activity. The Km for the cleavage of each substrate was determined by standard transformation of the Michaelis-Menten equation.

[16] = molecular target: trypsin; assay: Determination of enzyme selectivity: trypsin; assay type: biochemical, human; conditions: substrate at Km concentration
Procedure: as §4

[17] = molecular target: thrombin (Homo sapiens (Human), UniProt P00734); assay: Determination of enzyme selectivity: thrombin; assay type: biochemical; conditions: substrate at Km concentration
Procedure: as §4

[18] = simulated gastric fluid, 0.1N HCl (aq), read-out: Solubility 0.1N HCl (aq)
[19] = water, read-out: Solubility Water

Row | microsomal CLint at 5 μM [1] | Predicted in vivo rat Clp (% LBF) [2] | IC50 [3] | Predicted in vivo human Clp (% LBF) [4] | Ki [5] | Alpha [5] | fraction unbound at 5 h, 5 μM [6] | Papp at 1 h, 50 μM [7] | fraction unbound at 5 h, 5 μM [8] | IC50 [9] | IC50 [10] | IC50 [11] | microsomal CLint at 5 μM [12] | inhibition at 40 µM ([10]; 40 μM test compound) | Cmax [14] | Tmax [14] | SMILES | solubility [13, 18] | solubility [13, 19] | other results
1 | 54 µL/min/mg | 6 % LBF | 10.6 nM | 4 % LBF | 2.4 nM | 14.8 | 0.08 | 23 ×10⁻⁶ cm/s | 0.04 | > 4000 nM | 779 nM | > 4000 nM | 14 µL/min/mg | – | – | – | COCc1nn(Cc2cnc(N3CCCC3)nc2)cc1C(=O)NCc1cc(OC)ccc1-n1cnnn1 [Example 80, N-{[5-methoxy-2-(1,2,3,4-tetrazol-1-yl)phenyl]methyl}-3-(methoxymethyl)-1-{[2-(pyrrolidin-1-yl)pyrimidin-5-yl]methyl}pyrazole-4-carboxamide] | – | – | –
2 | 35 µL/min/mg | 3 % LBF | 1.7 nM | 2 % LBF | 0.28 nM | 2.78 | 0.1 | 16 ×10⁻⁶ cm/s | 0.03 | > 40000 nM | 477 nM | > 40000 nM | 4 µL/min/mg | 99% | 981 ng/mL | 0.5 h | COCc1nn(Cc2cnc(N3CCC(F)(F)C3)nc2)cc1C(=O)NCc1c(-n2cnnn2)ccc(OC)c1F [Example 86, 1-{[2-(3,3-Difluoropyrrolidin-1-yl)pyrimidin-5-yl]methyl}-N-{[2-fluoro-3-methoxy-6-(1,2,3,4-tetrazol-1-yl)phenyl]methyl}-3-(methoxymethyl)pyrazole-4-carboxamide] | 50 µg/mL (≈ 89.5 µM) | 1 µg/mL (≈ 1.79 µM) | –
3 | – | – | 17.6 nM | – | – | – | – | 2 ×10⁻⁶ cm/s | – | > 40000 nM | > 40000 nM | > 40000 nM | – | 8% | – | – | COCc1nn(Cc2ccc(Cn3ccccc3=O)cc2)cc1C(=O)NCc1ccccc1-n1cnnn1 [Example 74, 3-(methoxymethyl)-1-({4-[(2-oxopyridin-1-yl)methyl]phenyl}methyl)-N-{[2-(1,2,3,4-tetrazol-1-yl)phenyl]methyl}pyrazole-4-carboxamide] | – | – | IC50 [15]: > 40000 nM; IC50 [16]: > 40000 nM; IC50 [17]: > 40000 nM
4 | 82 µL/min/mg | <2.0 % LBF | 1.4 nM | 3 % LBF | 0.17 nM | 4.2 | 0.03 | 28 ×10⁻⁶ cm/s | < 0.01 | > 40000 nM | 235 nM | > 40000 nM | 29 µL/min/mg | 100% | 845 ng/mL | 1.5 h | COCc1nn(Cc2ccc(N3CCCC3)nc2)cc1C(=O)NCc1c(-n2cnnn2)ccc(OC)c1F [Example 77, N-{[2-fluoro-3-methoxy-6-(1,2,3,4-tetrazol-1-yl)phenyl]methyl}-3-(methoxymethyl)-1-{[6-(pyrrolidin-1-yl)pyridin-3-yl]methyl}pyrazole-4-carboxamide] | – | – | –

Row | SMILES | microsomal CLint at 5 μM [1] | Predicted in vivo rat Clp (% LBF) [2] | IC50 [3] | Predicted in vivo human Clp (% LBF) [4] | Ki [5] | Alpha [5] | fraction unbound at 5 h, 5 μM [6] | Papp at 1 h, 50 μM [7] | fraction unbound at 5 h, 5 μM [8] | IC50 [9] | IC50 [10] | IC50 [11] | microsomal CLint at 5 μM [12] | inhibition at 40 µM ([10]; 40 μM test compound) | Cmax [14] | Tmax [14] | solubility [13, 18] | solubility [13, 19] | other results
5 | COCc1nn(Cc2ccc(Cn3ccccc3=O)cc2)cc1C(=O)NCc1nccc(OC)c1C [Example 22, N-[(4-methoxy-3-methylpyridin-2-yl)methyl]-3-(methoxymethyl)-1-({4-[(2-oxopyridin-1-yl)methyl]phenyl}methyl)pyrazole-4-carboxamide] | 68 µL/min/mg | <1.6 % LBF | 4.9 nM | 7 % LBF | 1.9 nM | 29 | 0.08 | – | < 0.01 | > 40000 nM | > 40000 nM | > 40000 nM | – | – | 1020 ng/mL | 1 h | 900 µg/mL (≈ 1850 µM) | 60 µg/mL (≈ 123 µM) | inhibition at 40 µM [10]: 5%
